Consider four molecules from paper PMC5871875 (Journal of medicinal chemistry, 2017).

The target in data set [1] is T1, purified, active AEP (Homo sapiens, UniProt Q99538).
T1 sequence (Q99538 18-323 limits assumed): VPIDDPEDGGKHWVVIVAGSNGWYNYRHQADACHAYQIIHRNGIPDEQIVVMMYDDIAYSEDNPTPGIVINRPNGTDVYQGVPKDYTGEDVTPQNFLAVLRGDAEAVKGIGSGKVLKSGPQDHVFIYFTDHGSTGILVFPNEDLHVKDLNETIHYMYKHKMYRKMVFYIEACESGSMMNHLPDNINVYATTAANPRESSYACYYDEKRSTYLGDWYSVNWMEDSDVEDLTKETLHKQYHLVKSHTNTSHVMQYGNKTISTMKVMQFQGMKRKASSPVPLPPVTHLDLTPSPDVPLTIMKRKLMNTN
The experiment in a line: SAR analysis: residual activity of purified, active AEP. To be noted: 1 μM compound, 50 nM AEP, 5 μM substrate peptide.

For data set [2] the following is noted: in the presence or absence of NADPH; cited from earlier work.
Data set [3] deals with CaCo-2 cells. The data set can be described thus: Caco-2 permeability assay. It is filed as in vitro ADME. A general note: Caco-2 monolayers are a common model of the intestinal barrier.
Data set [4] addresses T2, AEP (Homo sapiens, UniProt Q99538).
T2 sequence (Q99538 18-323 limits assumed): T1 sequence (Q99538 18-323 limits assumed)
The data set can be described thus: Inhibition kinetics assay of AEP.

The subject of data set [5] is major cytochrome P450 isozymes. As to conditions: cited from earlier work.
In data set [6] the target is T2, AEP. The data set can be described thus: Time course inactivation assay of AEP. It is filed as biochemical. To be noted: nonlinear progress curves.
Data set [7] has as its target cathepsin-L (Homo sapiens, UniProt P07711). The experiment in a line: Inhibition specificity assay, cathepsin-L. The format is biochemical.
Data set [8] concerns the target T2, AEP. The data set can be described thus: IC50 assay against pure AEP. It is filed as biochemical.
The subject of data set [9] is MDA-MB-231 cells. The experiment in a line: Cell proliferation/viability. It is filed as cell-based, human. As to conditions: MDA-MB-231, doses of the MMP-2 cleavage experiment (1-10 μM).
The nature of data set [10]: Toxicity observations in treated tumor-bearing mice. The format is in vivo, nude mice. To be noted: 3 or 10 mg/kg oral, 42 days.
For data set [11], the system named is endogenous MMP-2 cleavage. The data set can be described thus: Gelatin zymography: endogenous MMP-2 cleavage in MDA-MB-231 cells. To be noted: MDA-MB-231, 1, 2, 5 and 10 μM. It is filed as cell-based, human.
Data set [12] relates to MDA-MB-231 cells. The data set can be described thus: In vivo spontaneous metastasis assay. More on the design: species or system nude mice. As to conditions: 42 days.

Each structure is given as a SMILES string.

Sequence of cathepsin-L (P07711 114-333, species assumed): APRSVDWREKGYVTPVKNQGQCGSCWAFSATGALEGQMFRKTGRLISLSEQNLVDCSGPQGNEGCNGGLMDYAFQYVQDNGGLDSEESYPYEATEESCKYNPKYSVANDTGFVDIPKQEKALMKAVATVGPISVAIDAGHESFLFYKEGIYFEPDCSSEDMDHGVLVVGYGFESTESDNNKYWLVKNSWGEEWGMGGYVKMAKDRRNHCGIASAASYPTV

With `Cn1c(=O)[nH]c(=O)c2c1nc(S)n2C[C@H](O)COc1ccccc1` [compound 38k], the “loss in activity relative to parent compound 38” value in data set [1] was > 2 fold.
With `Cn1c(=O)[nH]c(=O)c2c1nc(S)n2CC(O)COc1ccc(Cl)cc1` (centres unmarked) [compound 38], the “stability in liver microsomes” value in [2] is “stable”. Moreover, the “Caco-2 cell permeability (in words)” value in data set [3] is “minimal”. Besides, in data set [4], the mechanism of inhibition entry is reported as “competitively inhibits”. The “inhibition of major cytochrome P450 isozymes” value in [5] is listed as “did not significantly inhibit”. The “binding behaviour from time course inactivation” value in data set [6] is given as “slow-binding inhibitor”.
Turning to `Cn1c(=O)c2c(nc(S)n2C)n(C)c1=O` [38p], in data set [7], the “inhibition of cathepsin-L” value was “able to inhibit”. Also, the “increased potency against AEP compared to compound 38” value in data set [8] is “about 2 fold”. Moreover, the “IC50 against AEP” value in [8] (10 μM Cbz-Ala-Ala-Asn-AMC, 50 nM AEP) is listed as “submicromolar”.
As for `CCn1c(=O)c2c(nc(S)n2C)n(C)c1=O` [compound 38u], the cell viability result in [9] is “not affected”. In addition, in [10], the “complete blood count (CBC) versus vehicle” value was “no significant difference”; the “pathological examination of major organs (kidney, liver, bone marrow)” value is “did not exhibit any significant amount of toxicity”; the “size of the liver versus vehicle” value is on record as “remained similar”; the “size of the spleen versus control” value was “slight increase”. Further, the “toxicity by body weight versus control” value in data set [10] is recorded as “no significant toxicity”. The “endogenous MMP-2 cleavage” value in data set [11] is “inhibited in a dose-dependent manner”. The “number of metastatic lung nodules” value in data set [12] (3 mg/kg oral gavage) was “significantly decreased”. Also, in [12] (10 mg/kg oral gavage), the “lung metastasis (nodules)” value is reported as “almost completely prevented”. The “mammary tumor weight or volume versus control” value in [12] (3 or 10 mg/kg oral, data not shown) is “no significant difference”. Moreover, the “inhibition of cathepsin-L” value in [7] is reported as “able to inhibit”.
